Laboratory results from patent publication US20140011277A1, “NOVEL THERAPEUTIC STRATEGIES FOR IMPROVING AN ANTICANCER TREATMENT” (CENTRE NATIONAL DE LA RECHERCHE SCIENTIFIQUE (CNRS), priority 2010, published 2014).

Experiments:
[1] = test system: yeasts expressing human Patched protein; assay: Resistance of yeasts to doxorubicin (growth, OD at 600 nm over time); type: cell-based, S. cerevisiae; conditions: 10 μg/mL doxorubicin in rich medium, 18° C.; yeasts expressing human Patched protein vs K699 control yeasts
Method: Yeasts not expressing human Patched protein (controls) K699 and yeasts expressing human Patched protein were cultured at 18° C. in normal rich medium and in rich medium with 10 μg of added doxorubicin per mL of medium.
The OD of the yeasts at 600 nm is measured over time.

[2] = biological target: T1, human Patched protein (Homo sapiens, UniProt Q13635); assay: Binding of doxorubicin to Patched protein (quenching of doxorubicin fluorescence on yeast membrane preparations); conditions: 50 nM doxorubicin added to 30 μg of membranes; Patched-containing vs K699 control membranes
T1 sequence (Q13635 1-1447): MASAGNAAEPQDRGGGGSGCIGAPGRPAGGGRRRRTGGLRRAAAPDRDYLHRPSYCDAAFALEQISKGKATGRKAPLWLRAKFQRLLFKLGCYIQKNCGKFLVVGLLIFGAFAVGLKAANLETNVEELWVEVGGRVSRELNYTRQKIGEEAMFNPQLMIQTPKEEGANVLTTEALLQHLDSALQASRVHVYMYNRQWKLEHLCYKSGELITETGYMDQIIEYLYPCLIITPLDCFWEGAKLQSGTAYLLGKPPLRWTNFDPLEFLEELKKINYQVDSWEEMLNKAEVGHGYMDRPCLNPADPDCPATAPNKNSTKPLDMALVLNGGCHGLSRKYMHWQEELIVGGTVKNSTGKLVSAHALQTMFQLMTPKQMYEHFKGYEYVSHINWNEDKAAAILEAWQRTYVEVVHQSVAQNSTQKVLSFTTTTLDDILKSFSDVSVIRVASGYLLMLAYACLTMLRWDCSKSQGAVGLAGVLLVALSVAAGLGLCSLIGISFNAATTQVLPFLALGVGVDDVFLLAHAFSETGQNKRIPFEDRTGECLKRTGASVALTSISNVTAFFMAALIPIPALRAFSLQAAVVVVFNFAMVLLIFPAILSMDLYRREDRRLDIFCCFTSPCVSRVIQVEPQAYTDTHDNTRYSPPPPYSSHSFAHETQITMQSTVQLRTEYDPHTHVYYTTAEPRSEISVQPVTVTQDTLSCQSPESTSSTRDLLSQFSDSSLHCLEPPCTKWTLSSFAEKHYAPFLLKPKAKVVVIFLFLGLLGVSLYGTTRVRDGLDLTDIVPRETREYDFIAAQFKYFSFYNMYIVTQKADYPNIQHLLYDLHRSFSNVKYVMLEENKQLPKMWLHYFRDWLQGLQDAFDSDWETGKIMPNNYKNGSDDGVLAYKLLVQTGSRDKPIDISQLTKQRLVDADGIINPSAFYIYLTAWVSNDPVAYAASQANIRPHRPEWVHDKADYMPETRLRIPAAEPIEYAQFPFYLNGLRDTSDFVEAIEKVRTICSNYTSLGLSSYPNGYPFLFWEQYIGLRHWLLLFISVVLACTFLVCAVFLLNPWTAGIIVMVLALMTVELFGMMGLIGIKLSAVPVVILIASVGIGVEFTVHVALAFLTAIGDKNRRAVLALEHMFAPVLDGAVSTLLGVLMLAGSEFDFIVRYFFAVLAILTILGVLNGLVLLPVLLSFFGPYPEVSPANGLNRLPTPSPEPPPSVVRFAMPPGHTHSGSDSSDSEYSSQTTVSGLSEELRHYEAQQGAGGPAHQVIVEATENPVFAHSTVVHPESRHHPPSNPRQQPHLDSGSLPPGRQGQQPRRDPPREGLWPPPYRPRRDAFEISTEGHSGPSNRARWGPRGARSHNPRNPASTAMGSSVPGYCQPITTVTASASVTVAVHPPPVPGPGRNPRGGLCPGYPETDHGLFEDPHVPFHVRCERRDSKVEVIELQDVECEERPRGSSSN
Method: 50 nM of doxorubicin are added to 30 μg of membranes and the doxorubicin fluorescence is measured as a function of time.

[3] = biological target: T1, human Patched protein; assay: Measurement of the efflux of doxorubicin on yeasts; type: cell-based; set-up: expressed in transfected cells; host or cells: Xenopus laevis oocytes (RNA injection); conditions: yeasts loaded 2 hours with 10 μM doxorubicin, supernatant after 20 mins; Patched-expressing vs K699 control
Method: After a centrifugation (5 mins at 6800 g) to remove all cell fragments, the reading of the doxorubicin fluorescence (λex=490+/−10 nm, λem=610+/−10 nm) was carried out on 200 μL of supernatant in a plate reader (FLUOstar, Labtech). • on yeasts: K699 control yeasts and yeasts expressing human Patched protein were cultured at 18° C. up to an OD600 of 7 on a rich medium with 2% of added D-glucose.
The cells are then centrifuged, (5 mins. 3000 g), washed 4 times with water and finally resuspended carefully to an OD600 of 10 in 50 mM NaOH-Hepes buffer (pH 7.0) and incubated for 2 hours with 10 μM of doxorubicin.
After rinsing, the yeasts are resuspended in 50 mM NaOH-Hepes buffer (pH 7.0).
After 20 mins, the yeasts are centrifuged and doxorubicin contained in the supernatant is measured by fluorescence (λex=490+/−10 nm, λem=610+/−10 nm). • On xenopus oocytes: obtaining and preparing the oocytes

[4] = biological target: T1, human Patched protein; assay: Measurement of the efflux of doxorubicin on xenopus oocytes; type: cell-based; set-up: expressed in transfected cells; host or cells: Xenopus laevis oocytes (RNA injection); conditions: oocytes injected with 10 or 20 ng RNA encoding human Patched protein vs non-injected; 100 μM doxorubicin 16 hrs, supernatant after 90 mins
Method: The oocytes are collected by surgery on an Xenopus laevis female anaesthetized with 0.2% of MS222 (tricaine methanesulfonate) in accordance with the procedures recommended by the ethics committee. The oocytes are washed with an MBS saline solution, pH 7.4 (NaCl 85 mM, KCl 1 mM, NaHCO32,4 mM, MgSO40.82 mM, Ca(NO3)20.33 mM, CaCl2 0.41 mM, HEPES 10 mM, NaOH 4.5 mM) supplemented with 50 U/ml of penicillin and 50 μg/ml of streptomycin. The oocytes are then defolliculated by incubation for 16 hrs at 19° C. with 1.8 mg/ml of collagenase then 30 mins with MBS without calcium, and placed in MBS. 50 nL containing 10 or 20 ng of RNA encoding human Patched protein are injected per oocyte. The oocytes are incubated for 3 days at 19° C. in MBS. 4 lots of 10 control oocytes (not injected) and oocytes injected with RNA encoding human Patched protein were incubated for 16 hrs at 19° C. with 100 μM of doxorubicin. After rinsing, the oocytes are placed in MBS. The supernatant is sampled after 90 mins and the doxorubicin fluorescence present in the sample is measured by fluorescence (λex=490+/−10 nm, λem=610+/−10 nm).
The experiments being carried out on 4 lots of 10 control oocytes (non-injected) and oocytes injected with RNAs encoding human Patched protein, the average of the values obtained for the 4 lots is shown.

Structure (SMILES): COc1cccc2c1C(=O)c1c(O)c3c(c(O)c1C2=O)C[C@@](O)(C(=O)CO)C[C@@H]3O[C@H]1C[C@H](N)[C@H](O)[C@H](C)O1 [doxorubicin]
- resistance of yeasts to doxorubicin [1]: yeasts expressing human Patched protein resist better than the control yeasts
- quenching of doxorubicin fluorescence (binding to Patched protein) [2]: rapid and significant quenching of the doxorubicin fluorescence
- efflux of doxorubicin (fluorescence of supernatant) [3]: increase in the efflux of doxorubicin
- efflux of doxorubicin (fluorescence of supernatant) [4]: increase in the efflux of doxorubicin
